Data on four cell lines can be found in the supplement of paper PMC10307832.

What all share (assay): relative viability (nuclei count vs DMSO), 5 days (fraction); higher = more cells survive
Compound in the assay “Doramapimod + Foretinib”: Cc1ccc(-n2nc(C(C)(C)C)cc2NC(=O)Nc2ccc(OCCN3CCOCC3)c3ccccc23)cc1 [Doramapimod] + COc1cc2c(Oc3ccc(NC(=O)C4(C(=O)Nc5ccc(F)cc5)CC4)cc3F)ccnc2cc1OCCCN1CCOCC1 [Foretinib] (partner 0.25 µM)
The method in brief: (§1)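 One day after seeding in 1536-well plates, lung cancer cell lines were dosed by pin tool. Dosing was either single-drug or a fixed anchor-drug dose plus five library-drug doses (not always all listed) in √10 steps. After 5 days, nuclei were stained in one fix-and-stain step and counted on 4× images, and relative viability is the nuclei count of treated wells over that of vehicle wells, given as the median of duplicate plates.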

Compound in the assay “IPA-3 + Palbociclib”: C1=CC=C2C(=C1)C=CC(=C2SSC3=C(C=CC4=CC=CC=C43)O)O [IPA-3] + CC(=O)c1c(C)c2cnc(Nc3ccc(N4CCNCC4)cn3)nc2n(C2CCCC2)c1=O [Palbociclib] (partner 0.5 µM)
The method in brief: as §1

Compound in the assay “Doramapimod + Bortezomib”: Cc1ccc(-n2nc(C(C)(C)C)cc2NC(=O)Nc2ccc(OCCN3CCOCC3)c3ccccc23)cc1 [Doramapimod] + CC(C)C[C@H](NC(=O)[C@H](Cc1ccccc1)NC(=O)c1cnccn1)B(O)O [Bortezomib] (partner 0.002 µM)
The method in brief: as §1

Compound in the assay “Doramapimod + Lapatinib”: Cc1ccc(-n2nc(C(C)(C)C)cc2NC(=O)Nc2ccc(OCCN3CCOCC3)c3ccccc23)cc1 [Doramapimod] + CS(=O)(=O)CCNCc1ccc(-c2ccc3ncnc(Nc4ccc(OCc5cccc(F)c5)c(Cl)c4)c3c2)o1 [Lapatinib] (partner 2 µM)
The procedure, abridged: as §1

Take NCI-H2347: the relative viability in the assay with Doramapimod + Foretinib (first compound 0.06325 µM) stood at 1.03; with Doramapimod + Foretinib (first compound 0.2 µM), 1.1; in the assay with Doramapimod + Foretinib (first compound 0.6325 µM), 0.861; with Doramapimod + Foretinib (first compound 2 µM), 1.11; with IPA-3 + Palbociclib (first compound 0.2 µM), 0.409; with IPA-3 + Palbociclib (first compound 0.6325 µM), 0.45. Besides, the relative viability in the assay with IPA-3 + Palbociclib (first compound 2 µM) was determined as 0.429; with IPA-3 + Palbociclib (first compound 6.325 µM), 0.414; in the assay with IPA-3 + Palbociclib (first compound 20 µM), 0.448; with Doramapimod + Bortezomib (first compound 0.06325 µM) it was 0.72; with Doramapimod + Bortezomib (first compound 0.2 µM), 1.19; with Doramapimod + Bortezomib (first compound 0.6325 µM), 1.07. The relative viability was 0.963 with Doramapimod + Bortezomib (first compound 2 µM); 0.932 with Doramapimod + Lapatinib (first compound 0.02 µM); 0.897 with Doramapimod + Lapatinib (first compound 0.06325 µM); 0.969 with Doramapimod + Lapatinib (first compound 0.2 µM); 0.67 with Doramapimod + Lapatinib (first compound 0.6325 µM); 0.875 with Doramapimod + Lapatinib (first compound 2 µM).

Take NCI-H2405: the relative viability in the assay with Doramapimod + Foretinib (first compound 0.02 µM) stood at 1.11; with Doramapimod + Foretinib (first compound 0.06325 µM), 1.01; in the assay with Doramapimod + Foretinib (first compound 0.2 µM), 1.04; with Doramapimod + Foretinib (first compound 0.6325 µM), 1.14; with Doramapimod + Foretinib (first compound 2 µM), 0.998; in the assay with IPA-3 + Palbociclib (first compound 0.2 µM), 0.561. The relative viability stood at 0.49 with IPA-3 + Palbociclib (first compound 0.6325 µM); 0.519 with IPA-3 + Palbociclib (first compound 2 µM); 0.529 with IPA-3 + Palbociclib (first compound 6.325 µM); 0.544 with IPA-3 + Palbociclib (first compound 20 µM); 0.98 in the assay with Doramapimod + Bortezomib (first compound 0.02 µM); 1.03 with Doramapimod + Bortezomib (first compound 0.06325 µM). In addition, the relative viability with Doramapimod + Bortezomib (first compound 0.2 µM) worked out at 0.984; with Doramapimod + Bortezomib (first compound 0.6325 µM), 0.712; with Doramapimod + Bortezomib (first compound 2 µM), 0.961; with Doramapimod + Lapatinib (first compound 0.02 µM) it was 1.15; with Doramapimod + Lapatinib (first compound 0.06325 µM), 1.1; in the assay with Doramapimod + Lapatinib (first compound 0.2 µM) it was 1.07. Also, the relative viability is 1.16 with Doramapimod + Lapatinib (first compound 0.6325 µM) and 0.969 with Doramapimod + Lapatinib (first compound 2 µM).

For NCI-H3122, the relative viability with Doramapimod + Foretinib (first compound 0.02 µM) was 0.921; in the assay with Doramapimod + Foretinib (first compound 0.06325 µM) it was 0.911; with Doramapimod + Foretinib (first compound 0.2 µM) it was 0.922; in the assay with Doramapimod + Foretinib (first compound 0.6325 µM) it was 0.963; in the assay with Doramapimod + Foretinib (first compound 2 µM) it was 0.993; with IPA-3 + Palbociclib (first compound 0.2 µM), 0.185. Besides, the relative viability in the assay with IPA-3 + Palbociclib (first compound 0.6325 µM) is 0.174; with IPA-3 + Palbociclib (first compound 2 µM) it was 0.176; in the assay with IPA-3 + Palbociclib (first compound 6.325 µM), 0.219; in the assay with IPA-3 + Palbociclib (first compound 20 µM), 0.203; in the assay with Doramapimod + Bortezomib (first compound 0.02 µM), 1.04; with Doramapimod + Bortezomib (first compound 0.06325 µM), 0.983. Also, the relative viability was 0.949 with Doramapimod + Bortezomib (first compound 0.2 µM); 1.07 with Doramapimod + Bortezomib (first compound 0.6325 µM); 0.91 with Doramapimod + Bortezomib (first compound 2 µM); 1.02 with Doramapimod + Lapatinib (first compound 0.02 µM); 0.962 in the assay with Doramapimod + Lapatinib (first compound 0.06325 µM); 0.974 with Doramapimod + Lapatinib (first compound 0.2 µM). The relative viability with Doramapimod + Lapatinib (first compound 0.6325 µM) stood at 1.08; in the assay with Doramapimod + Lapatinib (first compound 2 µM) it was 0.932.

Regarding PC-3 [JPC-3], the relative viability was found to be 1.14 in the assay with Doramapimod + Foretinib (first compound 0.02 µM); 1.11 with Doramapimod + Foretinib (first compound 0.06325 µM); 1.15 with Doramapimod + Foretinib (first compound 0.2 µM); 1.23 with Doramapimod + Foretinib (first compound 0.6325 µM); 1.1 with Doramapimod + Foretinib (first compound 2 µM); 0.537 in the assay with IPA-3 + Palbociclib (first compound 0.2 µM). Also, the relative viability with IPA-3 + Palbociclib (first compound 0.6325 µM) stood at 0.541; with IPA-3 + Palbociclib (first compound 2 µM) it was 0.538; with IPA-3 + Palbociclib (first compound 6.325 µM), 0.531; in the assay with IPA-3 + Palbociclib (first compound 20 µM), 0.477; with Doramapimod + Bortezomib (first compound 0.02 µM), 0.909; with Doramapimod + Bortezomib (first compound 0.06325 µM) it was 0.926. The relative viability was 0.832 with Doramapimod + Bortezomib (first compound 0.2 µM); 0.939 with Doramapimod + Bortezomib (first compound 0.6325 µM); 0.943 with Doramapimod + Bortezomib (first compound 2 µM); 0.475 with Doramapimod + Lapatinib (first compound 0.02 µM); 0.433 with Doramapimod + Lapatinib (first compound 0.06325 µM); 0.432 with Doramapimod + Lapatinib (first compound 0.2 µM). Moreover, the relative viability came out at 0.485 with Doramapimod + Lapatinib (first compound 0.6325 µM) and 0.348 with Doramapimod + Lapatinib (first compound 2 µM).
